We go through five molecules from publication PMC5452035, “Structural insight into recognition of phosphorylated threonine‐4 of RNA polymerase II C‐terminal domain by Rtt103p” (EMBO Reports, 2017).

Where a chain is given by its changes, count along the chain named. Non-standard residues stand in square brackets, D forms with d. No end group written: not given here. pY = N[C@@H](Cc1ccc(OP(=O)(O)O)cc1)C(=O)O; FAM = 5,6-carboxyfluorescein

The target of experiment [1] is T1, Rtt103p CID (Saccharomyces cerevisiae, UniProt Q05543).
T1 construct: Rtt103p CID (3‐131–6xHIS) was expressed and purified as previously described; 6xHis (C); made in house; host or cells: E. coli BL21-Codon Plus (DE3)-RIPL
T1 sequence (Q05543 3-131): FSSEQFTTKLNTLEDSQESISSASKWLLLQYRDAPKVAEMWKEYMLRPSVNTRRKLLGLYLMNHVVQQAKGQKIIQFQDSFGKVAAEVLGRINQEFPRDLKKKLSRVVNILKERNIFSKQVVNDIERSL
In words: Equilibrium binding by fluorescence anisotropy (FA), wild-type Rtt103p CID. More on the design: species or system yeast. For orientation: In fluorescence polarisation assays a small probe gives low polarisation when free and higher when bound to something large.

Experiment [2] deals with T2, Rtt103p CID Q19A (Saccharomyces cerevisiae, UniProt Q05543, Q19A).
T2 construct: Rtt103p CID (3‐131–6xHIS) was expressed and purified as previously described; 6xHis (C); made in house; host or cells: E. coli BL21-Codon Plus (DE3)-RIPL
T2 sequence (Q05543 3-131 Q19A): T1 sequence (Q05543 3-131) with Q17A
Briefly: Equilibrium binding by fluorescence anisotropy (FA), Rtt103p CID Q19A mutant. More on the design: species or system yeast. The following applies: Rtt103p CID Q19A mutant titrated into 10 nM FAM‐labelled CTD peptide, 10°C, pH 6.8, ± standard deviation of the fit. As for the experimental part: The equilibrium binding of Rtt103p CID constructs to differently phosphorylated CTD was analysed by fluorescence anisotropy. The CTD peptides were N‐terminally labelled with the 5,6‐carboxyfluorescein (FAM). The measurements were conducted on a FluoroLog‐3 spectrofluorometer (Horiba Jobin‐Yvon Edison, NJ). The instrument was equipped with a thermostatted cell holder with a Neslab RTE7 water bath (Thermo Scientific). Samples were excited with vertically polarized light at 467 nm, and both vertical and horizontal emissions were recorded at 516 nm. All measurements were conducted at 10°C in 35 mM KH2PO4, 100 mM KCl (pH 6.8). Each data point is an average of three measurements. The experimental binding isotherms were analysed by DynaFit using 1:1 model with non‐specific binding 39.

Regarding `C[C@@H](OP(=O)(O)O)[C@H](NC(=O)[C@@H]1CCCN1C(=O)[C@H](CO)NC(=O)[C@H](Cc1ccc(O)cc1)NC(=O)[C@H](CO)NC(=O)[C@@H]1CCCN1C(=O)[C@H](CO)NC(=O)[C@@H](NC(=O)[C@@H]1CCCN1C(=O)[C@H](CO)NC(=O)[C@H](Cc1ccc(O)cc1)NC(=O)[C@H](CO)NC(=O)[C@@H]1CCCN1C(=O)c1ccc2c(c1)C(=O)OC21c2ccc(O)cc2Oc2cc(O)ccc21)[C@@H](C)OP(=O)(O)O)C(=O)N[C@@H](CO)C(=O)N1CCC[C@H]1C(=O)N[C@@H](CO)C(=O)O` [Doubly phosphorylated pThr4‐CTD], binding in experiment [1] was put at a Kd of 6 ± 0.2 µM.
The molecule `C[C@@H](O)[C@H](NC(=O)[C@@H]1CCCN1C(=O)[C@H](CO)NC(=O)[C@H](Cc1ccc(O)cc1)NC(=O)[C@H](CO)NC(=O)[C@@H]1CCCN1C(=O)[C@H](CO)NC(=O)[C@@H](NC(=O)[C@@H]1CCCN1C(=O)[C@H](COP(=O)(O)O)NC(=O)[C@H](Cc1ccc(O)cc1)NC(=O)[C@H](CO)NC(=O)[C@@H]1CCCN1C(=O)c1ccc2c(c1)C(=O)OC21c2ccc(O)cc2Oc2cc(O)ccc21)[C@@H](C)OP(=O)(O)O)C(=O)N[C@@H](CO)C(=O)N1CCC[C@H]1C(=O)N[C@@H](CO)C(=O)O` [PS YpSPpTSPS YSPTSPS] yielded a Kd in experiment [1] of 43 ± 2 µM.
Still for that read-out and setting: then `C[C@@H](O)[C@H](NC(=O)[C@@H]1CCCN1C(=O)[C@H](CO)NC(=O)[C@H](Cc1ccc(O)cc1)NC(=O)[C@H](CO)NC(=O)[C@@H]1CCCN1C(=O)[C@H](CO)NC(=O)[C@@H](NC(=O)[C@@H]1CCCN1C(=O)[C@H](COP(=O)(O)O)NC(=O)[C@H](Cc1ccc(O)cc1)NC(=O)[C@H](CO)NC(=O)[C@@H]1CCCN1C(=O)c1ccc2c(c1)C(=O)OC21c2ccc(O)cc2Oc2cc(O)ccc21)[C@@H](C)O)C(=O)N[C@@H](CO)C(=O)N1CCC[C@H]1C(=O)N[C@@H](CO)C(=O)O` [pSer2‐CTD], with 6 ± 0.2 µM.
On to `C[C@@H](O)[C@H](NC(=O)[C@@H]1CCCN1C(=O)[C@H](CO)NC(=O)[C@H](Cc1ccc(O)cc1)NC(=O)[C@H](CO)NC(=O)[C@@H]1CCCN1C(=O)[C@H](CO)NC(=O)[C@@H](NC(=O)[C@@H]1CCCN1C(=O)[C@H](CO)NC(=O)[C@H](Cc1ccc(O)cc1)NC(=O)[C@H](CO)NC(=O)[C@@H]1CCCN1C(=O)c1ccc2c(c1)C(=O)OC21c2ccc(O)cc2Oc2cc(O)ccc21)[C@@H](C)OP(=O)(O)O)C(=O)N[C@@H](CO)C(=O)N1CCC[C@H]1C(=O)N[C@@H](CO)C(=O)O` [pThr4‐CTD], for which the Kd stood at 15 ± 1 µM in experiment [1] and 48 ± 5 µM in experiment [2].
As for “PS pYSPTSPS YSPTSPS: FAM‐labelled CTD peptide with the pTyr1 mark in the central heptad ({FAM}-PS[pY]SPTSPSYSPTSPS)”, the “binding with Rtt103p (in words)” value in experiment [1] (fluorescence anisotropy, 10 nM FAM‐labelled CTD peptide, 10°C, pH 6.8) is “completely abolished the binding”.

Broadly, the Kd is the constant that tells how readily two partners part at equilibrium. The low end stands for tighter binding, the high end for weaker binding.
